In test [1] the test system is busulphan-induced aplastic anemia in Balb/c mice. Description: Busulphan-induced aplastic anemia in Balb/c mice: white blood cell (WBC) and platelet count. It counts as in vivo. The following applies: after 44 days of treatment; Formula (Ia) 15 mg/kg PO daily; Romiplostim 50 μg/kg SC once a week; mean±SEM, n=6. The protocol: Aplastic anemia (AA) was induced in BALB/c mice by administration of busulphan (BU). BU was dissolved in acetone at concentrations of 5-10 mg/mL. Immediately before administration, deionized water was added to the BU-acetone solution and the solution was given by intraperitoneal (ip) injection at dose of 9 mg/kg. Control mice were given vehicle at the same dose volume.^9 Compound of formula (Ia) (15 mg/kg, PO, daily) and Romiplostim (50 μg/kg, SC, once a week) combination were administered.
Mice were be dosed with vehicle or BU on 10 occasions over a period of 21 days (days 1, 3, 6, 8, 10, 13, 15, 17, 19 and 21). Between 1 to 127 days after the final BU dose, mice from each group were autopsied for blood.^9
The changes in the white blood cell (WBC) and platelet count were measured after 44 days of treatment. Data are mean±SEM (n=6 for each group).

Test [2] has as its system cyclophosphamide-induced aplastic anemia in C57 mice. Description: Cyclophosphamide-induced aplastic anemia in C57 mice: white blood cell (WBC) and platelet count. The format is in vivo. The following applies: after 11 days of treatment; Formula (Ia) 15 mg/kg PO daily; Romiplostim 30 μg/kg SC once a week; mean±SEM, n=6. How it is done: Aplastic anemia (AA) was induced in C57 mice by administration of cyclophosphamide. Cyclophosphamide was dissolved in deionized water at concentrations of 20 mg/mL. Immediately before administration, deionized water was added to the stock solution and the solution was given by intraperitoneal (ip) injection at dose of 100 mg/kg. Mice were dosed with vehicle or cyclophosphamide for 4 days. Control mice were given vehicle at the same dose volume.^10 Compound of formula (Ia) (15 mg/kg, PO, daily) and Romiplostim (30 μg/kg, SC, once a week) combination were administered.
Blood was collected from each group after 11 days of treatment. The changes in the white blood cell (WBC) and platelet count were measured. Data are mean±SEM (n=6 for each group).

For Romiplostim, in test [1], the Platelets is on record as 1257.0 10^3/uL, the “Platelets % Change against vehicle control” value (“Platelets % Change” for short) is listed as 142.7%, the WBC is 4.2 10^3/uL and the “WBC % Change against vehicle control” value is reported as 79.3%.

Regarding `O=C(O)CNC(=O)c1c(O)c2ccccc2n(OCC2CC2)c1=O` [Formula (Ia)], in test [1], the Platelets is reported as 676.2 10^3/uL, the “Platelets % Change” value amounted to 30.6%, the WBC is listed as 2.6 10^3/uL and the “WBC % Change against vehicle control” value is recorded as 10.9%. In addition, in test [2], the Platelets is reported as 742.3 10^3/uL, the “Platelets % Change” value worked out at 32.1%, the WBC was 7.0 10^3/uL and the “WBC % Change against vehicle control” value was 10.1%.
